Results from patent publication US20220142959A1, “LEUCINE, ACETYL LEUCINE, AND RELATED ANALOGS FOR TREATING DISEASE” (priority 2019, published 2022).

Key:
[1] = test system: cerebellar Purkinje cells; test: Purkinje cell survival in Npc1−/− mice; type: in vivo; settings: 59 days of age, compared to Npc1−/− UT
Excerpt: FIG. 46 is an image showing cerebellar Purkinje cell loss progressing from anterior to posterior lobes and microglial activation in untreated Npc1^−/− mice and Npc1^−/− mice treated with ADLL, ALL, and ADL. Cerebellums were stained with calbindin-b (Purkinje cells) or CD68 (activated microglia).
FIG. 47 is a scatter graph showing Purkinje cell survival at 59 days of age in untreated Npc1^−/− mice and Npc1^−/− mice treated with ADLL, ALL, and ADL.
The combination of increased survival of neurons and a less inflammatory environment in the brain could improve brain function, quality of life, and delay the progression of disease in human subjects.

[2] = test system: LC3-II and p62/SQSTM1; test: Western blot of autophagy flux markers in cortex after CCI induced TBI; type: in vivo, mice
Protocol: (§1) Controlled cortical impact (CCI) induced TBI was performed in male C57BL6/J mice (20-25 g). Briefly, after a 10-mm midline incision was made over the skull, the skin and fascia were retracted, and a 4-mm craniotomy was made on the central aspect of the left parietal bone of mice under surgical anesthesia (2-3% isoflurane evaporated in a gas mixture containing 70% N20 and 30% 02). Moderate injury was induced in the exposed brain by a custom microprocessor-controlled and compressed air driven pneumatic impactor of 3.5 mm diameter tip with the impact velocity of 6 m/s and a deformation depth of 2 mm.
(§2) N-Acetyl-L-Leucine (“NAL” or “NALL”) was dissolved in ethanol to prepare a 50 mg/ml solution which was then diluted in water to give a 10 mg/ml solution. About 0.25 ml of the NAL solution (10 mg/ml) was orally administered in mice at a […] (2.5 mg NAL/25 g mouse) via oral gavage each day after CCI induced TBI for 4 days. Mice were also fed with NAL at 0.5 mg/kg chow powder chow mixed with diet gel for up to 7 days after injury.
Around 5 mm tissue of ipsilateral cortex around the site of injury from TBI mice or the corresponding tissue of same volume around the same cortical region from sham mice were dissected and processed. […] Protein bands were detected using chemiluminiscence kit (Pierce, 34076) and visualized using Chemi-doc system (Bio-Rad). Band intensity was analyzed using Image Lab software (Bio-Rad) and normalized to loading control (β-Actin). […]
Autophagy is a lysosome dependent cellular degradation process that is disrupted due to lysosomal damage after TBI. […] Whether attenuation of cell death following NALL treatment in TBI mice is mediated through the restoration of autophagy flux was assessed.
The levels of LC3-II and p62/SQSTM1 in the cortical tissue lysates prepared from vehicle and NAL fed naïve and TBI mice were determined by western blot analysis. A decrease in the levels of LC3-II in the brain of NALL fed mice as compared to vehicle treated mice at day 1 after TBI was detected. […]

[3] = test system: rat model of an acute unilateral labyrinthectomy; settings: activation of vestibulo-cerebellum, deactivation of posterolateral thalamus; cited from earlier work
[4] = test system: M1-type and M2-type inflammatory markers (mRNA); test: Real time rt-PCR of inflammatory markers in TBI mouse cortex; type: in vivo, mice; settings: for expression of inflammatory markers / pro-inflammatory mediators (overall): CCI induced TBI in mice
Protocol: as §1, §2
The expression level of M1-type pro-inflammatory markers Nos2, Nlrp3, IL-1β, TNF, IFNβ and Nox2 in the perilesional area in TBI mouse cortices were determined by real time rt-PCR. The expression level of M2-type markers Socs3, YM-1, IL4ra and Arg-1 in cortical tissue was also determined.
Total RNA isolated from the ipsilateral cortex using miRNeasy Mini Kit (Qiagen, Cat No. 217004) was converted into cDNA using High Capacity RNA to cDNA kit (Applied Biosystem, Cat. No. 4387406) as per manufacturer's instruction. cDNA TaqMan® Universal Master Mix II (Applied Biosystems, Cat. No. 4440040) was used to perform quantitative real-time PCR amplification as described previously using 20× TaqMan® Gene Expression Assay (Applied Biosystems) for following mouse genes were used: Gapdh (Mm99999915_g1), NLRP3 (Mm00840904_m1), NOX2 (Mm01287743_m1), iNOS (Mm00440502_m1), TNFα (Mm00443258_m1), IFnβ1 (Mm00439552_s1), IL-10 (Mm01288386_m1), IL1b (Mm00434228_m1), Arg1 (Mm00475988_m1), SOCS3 (Mm00545913_s1), YM-1 (Mm00657889_mH) and IL-4ra (Mm01275139_m1) (Applied Biosystems). Reactions were amplified and quantified using a 7900HT Fast Real-Time PCR System and corresponding software (Applied Biosystems). Relative gene expression normalized to Gapdh was calculated based on the comparative Ct method.

[5] = NAL fed mouse cortices as compared to sham mice
[6] = cortices of NAL fed vs vehicle fed TBI mice

Structure (SMILES): CC(=O)N[C@@H](CC(C)C)C(=O)O [ALL, acetyl-L-leucine]
- Purkinje cell survival in any cerebellar lobules [1]: did not improve
- p62/SQSTM1 level in the cortex ([2]; NALL fed vs vehicle treated mice after TBI): decrease
- levels of LC3-II in the brain ([2]; NALL fed vs vehicle treated mice, day 1 after TBI): decrease
- autophagy flux ([2]; mouse cortices after TBI): improves autophagy flux
- effect on postural compensation [3]: significant effect
- expression of inflammatory markers / pro-inflammatory mediators (overall) [4]: modulates the expression of pro-inflammatory mediators
- expression of inflammatory markers / pro-inflammatory mediators (overall) ([4]; listed as NAL): reduces expression of several inflammatory markers
- levels of IL-4ra [4, 5]: remained unaltered
- levels of Socs3 [4, 5]: remained unaltered
- levels of YM-1 [4, 5]: remained unaltered
- mRNA level of IFNβ [4, 6]: decrease
- mRNA level of Nox2 [4, 6]: decrease
- levels of Arg-1 ([4]; injured mouse cortex, NAL vs vehicle fed TBI mice): lowered
